# Test results taken from US5817297A, “Composition for enhancing oral hygiene” (LG Chemical Ltd., priority 1996, dated 1998).
# Columns and labels:
# [1] = test system: collagenase; assay: Inhibition of collagenase activity (azocol digestion, absorbance at 540 nm), Experiment 1; type: biochemical; conditions: for Absorbance (540 nm) / Enzyme activity inhibition (%): Table 5; for activity for inactivating collagenase / inhibition effect at the concentration in excess of 0.6% / inhibition effect on collagenase activity in comparison with extracts of other medicinal herbs: in words
# [2] = test system: Streptococcus mutans 10449, type C; assay: Inhibition of plaque formation on glass bar by Streptococcus mutans, Experiment 2; type: cell-based; conditions: for plaque formation(%): 1440 min
# Method: The inhibition effect of ursodesoxycholic acid, chenodesoxycholic acid and triclosan as the effective components of the composition for enhancing oral hygiene according to the present invention on plaque formation was determined and compared according to the following method.
# Ursodesoxycholic acid, Chenodesoxycholic aicd, Triclosan.
# 1 Test strain, Streptococcus mutans 10449, type C was cultured in brain-heart infusion agar medium and then the cultured strain was inoculated on THB(Todd Hewitt Broth) and cultured at 37° C. for 15 hours.
# 2 The small glass bar was sterilized and then weighed.
# 3 This glass bar was introduced into the test tube in which the medium containing sucrose is included. The test substance was added at a given concentration to the test tube and then the test microorganism strain was added thereto. The test tube was cultured at 37° C. for 24 hours.
# 4 After incubation, the glass bar was carefully removed from the test tube and dried at 37° C. for one day. The final weight of the glass bar was measured. The control group was treated in the same manner as the test group except that the test substance is not added.
# 5 From the measured result, the plaque formation percentage was calculated according to the following equation: [formula]
# [3] = test system: plaque formation; assay: Plaque index of test subjects using oral rinse of Table 2, Experiment 4; type: in vivo, human; conditions: in words
# Source text: (§1) 1 The test subjects were selected and were given the explanation of oral medical examination.
# (§2) 2 The test subjects were divided such that the group for each composition of examples and comparative examples includes 10 subjects, and then had the education of correct brushing method. The test subject were subjected to the oral medical examination to measure the plaque index (Quigley-Hein Index modified by Turesky) and the gingivitis index (Gingival Bleeding Index, Loe-Silness Index).
# (§3) 3 Before the test, all the test subjects were subjected to teeth scaling.
# (§4) 4 The placebo dentifrice(calcium monohydrogenphosphate 40%, glycerin 25%, sodium laurylsulfate 1.5%, sodium saccharin 0.1%, paraoxybenzoic acid ester 0.1%, sodium carboxymethylcellulose 1%, purified water added to 100%) was used for 2 weeks and then the oral medical exmamination was conducted again to measure the plaque index and the gingivitis index as the initial value.
# (§5) 5 The test subjects were allowed to brush using the dentifrice of examples and comparative examples for 4 weeks, three times for one day, according to the same method as usual. The oral medical examination was conducted at the second and fourth weeks to determine the plaque index score and the gingivitis index score.
# 6 The score obtained after 4 weeks was compared with the initial value and examined for the statistic significance using T-test. […]
# [4] = test system: gingivitis; assay: Gingivitis index of test subjects using dentifrice of Table 1, Experiment 3; type: in vivo, human; conditions: for effect of alleviating gingivitis / effect on gingivitis in combination with bamboo salt, the extract of medicinal herbs, etc.: dentifrice, in words
# Method: (§6) The effect of inhibiting plaque formation and gingivitis was tested using the dentifrice compositions of Examples 1 to 6 and Comparative Examples 1 to 4 described in Table 1 according to the following method. The results are described in the following Tables 7 and 8.
# as §1, §2, §3, §4, §5
# (§7) 6 The score obtained after 4 weeks was compared with the initial value and examined for the statistic significance using T-test.
# [5] = test system: plaque formation; assay: Plaque index of test subjects using dentifrice of Table 1, Experiment 3; type: in vivo, human; conditions: in words; for effect on the plaque formation: dentifrice
# Method: as §6, §1, §2, §3, §4, §5, §7
# [6] = test system: gingivitis; assay: Gingivitis index of test subjects using oral rinse of Table 2, Experiment 4; type: in vivo, human; conditions: in words
# Source text: as §1, §2, §3, §4, §5, §7
# The effect of inhibiting plaque formation and gingivitis was tested using the oral rinse compositions of Examples 7 to 12 and Comparative Examples 5 to 8 described in Table 2 according to the same method as Experiment 3. The results are described in the following Tables 9 and 10.
# [7] = test system: collagenase; assay: Inhibition of collagenase activity (azocol digestion, absorbance at 540 nm), Experiment 1; type: biochemical; conditions: Table 4; final concentration 0.02%, 10% ethanol solution
# Method: The inhibition effects on collagenase activity of various substances including ursodesoxycholic acid and chenodesoxycholic acid as the effective components of the composition for enhancing oral hygiene according to the present invention were determined and compared according to the following method.
# ursodesoxycholic aicd, chenodesoxycholic acid, fel tauri salt, bamboo salt, common salt, Machili cortex, Phellodendri cortex, Platycodi radix, Schizonepetae herba, Glycyrrhizae radix, Angelicae gigantis radix, Chamomillae flos, Myrrha, Theae folium, Taraxaci radix cum Herba, Lonicerae flos, Ciniicifugae rhizoma.
# 1 100 μl of 2% azocol solution was added to the test tube and then 190 μl of buffer solution (0.05M Tris-HCl, 1 mM CaCl2, pH 7.8) was added thereto.
# 2 To the resulting solution as prepared above was added to each test substance in the following concentration:
# Ursodesoxycholic acid (10% ethanol solution) or chenodesoxycholic acid (10% ethanol solution) was added to the final concentration of 0.02%;
# Fel tauri salt, bamboo salt or common salt was dissolved in the buffer solution as mentioned above and then added to the final concentration of 2.0%;
# Machili cortex, Phellodendri cortex, Platycodi radix, Schizonepetae herba, Glycyrrhizae radix, Angelicae gigantis radix, Chamomillae flos, Myrrha, Theae folium, Taraxaci radix cum Herba, Lonicerae flos or Cimicifugae rhizoma was added in the form of 30% ethanol extract to the final concentration of 0.1%.
# 3 100 μl of collagenase having 100 ppm concentration was added and then the mixture was maintained in a 37° C. incubator for 18 hours. (Separately, the standard activity curve was prepared from 10, 100, 200 μl of collagenase.)
# 4 The test tubes were centrifuged for 5 minutes.
# 5 The supernatant was separated from the test tube and then added to the cell. The absorbance at 540 nm was measured by spectrophotometer and then the activity of the test group was determined from the standard activity curve.
structure (smiles),measurement,setting,value
"C[C@H](CCC(=O)O)[C@H]1CC[C@H]2[C@@H]3[C@@H](O)C[C@@H]4C[C@H](O)CC[C@]4(C)[C@H]3CC[C@]12C [Ursodesoxycholic acid, ursodesoxycholic acid]",concentration at which inhibition effect on collagenase begins,[1],0.01%
same,concentration at which inhibition effect on collagenase reaches the maximum level,[1],0.6%
same,Absorbance (540 nm),[1]; content 0.001%,0.326
same,Enzyme activity inhibition (%),[1]; content 0.001%,-2.82%
same,Absorbance (540 nm),[1]; content 0.010%,0.305
same,Enzyme activity inhibition (%),[1]; content 0.010%,13.02%
same,Absorbance (540 nm),[1]; content 0.020%,0.243
same,Enzyme activity inhibition (%),[1]; content 0.020%,45.64%
same,Absorbance (540 nm),[1]; content 0.050%,0.215
same,Enzyme activity inhibition (%),[1]; content 0.050%,57.54%
same,Absorbance (540 nm),[1]; content 0.100%,0.166
same,Enzyme activity inhibition (%),[1]; content 0.100%,71.26%
same,Absorbance (540 nm),[1]; content 0.150%,0.050
same,Enzyme activity inhibition (%),[1]; content 0.150%,88.60%
same,Absorbance (540 nm),[1]; content 0.200%,0.005
same,Enzyme activity inhibition (%),[1]; content 0.200%,92.03%
same,Absorbance (540 nm),[1]; content 0.600%,0.002
same,Enzyme activity inhibition (%),[1]; content 0.600%,92.22%
same,Absorbance (540 nm),[1]; content 1.000%,0.000
same,Enzyme activity inhibition (%),[1]; content 1.000%,92.34%
same,Absorbance (540 nm),[1]; content 2.000%,0.000
same,Enzyme activity inhibition (%),[1]; content 2.000%,92.34%
same,activity for inactivating collagenase,[1],good activity for inactivating collagenase
same,inhibition effect at the concentration in excess of 0.6%,[1],not significantly increased
same,inhibition effect on collagenase activity in comparison with extracts of other medicinal herbs,[1],superior inhibition effect on collagenase activity
same,pH,[2]; 0.100 (unit not given),4.2
same,plaque formation(%),[2]; 0.100 (unit not given),100.0%
same,effect on the plaque formation,[3],no significant effect on the plaque formation
same,effect of alleviating gingivitis at the concentration in excess of 1.0 wt %,"[4]; Comparative Example 2, in words",does not show any increase of the effect in proportion to the increase of the concentration
same,effect of alleviating gingivitis,[4],good effect of alleviating gingivitis
same,"effect on gingivitis in combination with bamboo salt, the extract of medicinal herbs, etc.",[4],synergistic alleviating effect on gingivitis
same,concentration at which the effect of alleviating gingivitis begins,"[4]; human, in vivo",0.01 wt %
same,concentration with a significant effect in comparison with Comparative Example 4,"[4]; human, in vivo",≥ 0.02 wt %
same,effect on the plaque formation,[5],no significant effect on the plaque formation
same,plaque effect in combination with the extract of other medicinal herbs,[5],do not show any synergistic and antagonistic effect
same,alleviating effect for gingivitis,[6],good alleviating effect for gingivitis
same,"effect on gingivitis in combination with bamboo salt, the extract of medicinal herbs, etc.",[6],synergistic allevia- ting effect on gingivitis
same,Absorbance (540 nm),[7],0.243
same,Enzyme activity inhibition (%),[7],45.64%
"C[C@H](CCC(=O)O)[C@H]1CC[C@H]2[C@@H]3[C@H](O)C[C@@H]4C[C@H](O)CC[C@]4(C)[C@H]3CC[C@]12C [Chenodesoxycholic acid, chenodesoxycholic acid]",concentration at which inhibition effect on collagenase begins,[1],0.01%
same,concentration at which inhibition effect on collagenase reaches the maximum level,[1],0.6%
same,Absorbance (540 nm),[1]; content 0.001%,0.324
same,Enzyme activity inhibition (%),[1]; content 0.001%,-1.20%
same,Absorbance (540 nm),[1]; content 0.010%,0.315
same,Enzyme activity inhibition (%),[1]; content 0.010%,6.55%
same,Absorbance (540 nm),[1]; content 0.020%,0.260
same,Enzyme activity inhibition (%),[1]; content 0.020%,39.23%
same,Absorbance (540 nm),[1]; content 0.050%,0.230
same,Enzyme activity inhibition (%),[1]; content 0.050%,52.15%
same,Absorbance (540 nm),[1]; content 0.100%,0.180
same,Enzyme activity inhibition (%),[1]; content 0.100%,67.87%
same,Absorbance (540 nm),[1]; content 0.150%,0.052
same,Enzyme activity inhibition (%),[1]; content 0.150%,88.41%
same,Absorbance (540 nm),[1]; content 0.200%,0.007
same,Enzyme activity inhibition (%),[1]; content 0.200%,91.91%
same,Absorbance (540 nm),[1]; content 0.600%,0.002
same,Enzyme activity inhibition (%),[1]; content 0.600%,92.22%
same,Absorbance (540 nm),[1]; content 1.000%,0.002
same,Enzyme activity inhibition (%),[1]; content 1.000%,92.22%
same,Absorbance (540 nm),[1]; content 2.000%,0.002
same,Enzyme activity inhibition (%),[1]; content 2.000%,92.22%
same,activity for inactivating collagenase,[1],good activity for inactivating collagenase
same,inhibition effect at the concentration in excess of 0.6%,[1],not significantly increased
same,inhibition effect on collagenase activity in comparison with extracts of other medicinal herbs,[1],superior inhibition effect on collagenase activity
same,pH,[2]; 0.100 (unit not given),4.2
same,plaque formation(%),[2]; 0.100 (unit not given),100.0%
same,effect on the plaque formation,[3],no significant effect on the plaque formation
same,effect of alleviating gingivitis,[4],good effect of alleviating gingivitis
same,"effect on gingivitis in combination with bamboo salt, the extract of medicinal herbs, etc.",[4],synergistic alleviating effect on gingivitis
same,effect on the plaque formation,[5],no significant effect on the plaque formation
same,plaque effect in combination with the extract of other medicinal herbs,[5],do not show any synergistic and antagonistic effect
same,alleviating effect for gingivitis,[6],good alleviating effect for gingivitis
same,"effect on gingivitis in combination with bamboo salt, the extract of medicinal herbs, etc.",[6],synergistic allevia- ting effect on gingivitis
same,Absorbance (540 nm),[7],0.260
same,Enzyme activity inhibition (%),[7],39.23%
"Oc1cc(Cl)ccc1Oc1ccc(Cl)cc1Cl [Triclosan, triclosan]",pH,[2]; triclosan 0.0010,4.3
same,plaque formation(%),[2]; triclosan 0.0010,100.0%
same,pH,[2]; triclosan 0.0050,4.3
same,plaque formation(%),[2]; triclosan 0.0050,100.0%
same,pH,[2]; triclosan 0.0100,4.3
same,plaque formation(%),[2]; triclosan 0.0100,100.0%
same,pH,[2]; triclosan 0.0300,4.5
same,plaque formation(%),[2]; triclosan 0.0300,50.0%
same,pH,[2]; triclosan 0.0500,7.5
same,plaque formation(%),[2]; triclosan 0.0500,0.0%
